Test results published in patent US20230381142A1, “ANTILEISHMANIAL COMPOUNDS, COMPOSITIONS AND USE THEREOF” (TRUSTEES OF BOSTON UNIVERSITY, priority 2022, published 2023).

tested on: L. donovani intracellular amastigotes in B10R cells; test: UCSD L. donovani infection assay (Assay Conditions D); type: cell-based; conditions: B10R cells
Method: (§1) Assay Conditions D: B10R cells (CVCL_0155) were seeded at 300 cells/well, and L. donovani WT promastigotes in stationary phase (7th day after passage) were added at 6,000 parasites/well (ratio of 20 parasites/cell). Both cells and parasites were seeded in DMEM High-Glucose medium (Gibco, cat. no. 11995065) containing 5% Fetal Bovine Serum (Sigma-Aldrich, cat. no. F2442) and 1% Penicillin-Streptomycin (Gibco, cat. no. 15140122). Cells and parasites were incubated in the presence of the compounds for 72 h at 37° C. and 5% C02. Plates were then fixed with 4% formaldehyde solution for at least 1 h, then washed with 1×PBS and stained with 5 μg/mL DAPI. Plates were read using an ImageXpress microscope (Molecular Devices) and analyzed by MetaXpress software (Molecular Devices) using a custom module optimized for this assay. […] Compounds were tested in a 10-point 2-fold serial dilution in 3 technical replicates, and 2 biological replicates. After 72 h, plates were fixed and stained with DAPI as described above. Images were acquired on an ImageXpress microscope, and analyzed using the MetaXpress custom module.
as §1, with “Compounds were obtained as 0.2 μmoles of dried film for primary single point screening. Each compound was diluted in DMSO to 10 μM final testing concentration. These compounds were tested in 2 biological replicates. The compounds were pre-spotted onto 384-well assay plates in single concentration.” for “Assay Conditions D:”, “CO2.” for “C02.”, “module. The DRCs were plotted, half-effective concentration (EC50) and half-cytotoxic concentration (CC50) were calculated using GraphPad Prism Software, version 6.05 (GraphPad Software, San Diego, CA).” for “module.”

Compound	L. donovani amastigotes EC75 (μM, B10R cells) [µM]
Cc1ccc(C2c3c(CC(C)C)n[nH]c3C(=O)N2c2ccc3ncnn3c2)cc1 (stereo not drawn) [BUCMD00156]	>10
CC(C)Cc1n[nH]c2c1C(C1CCCCC1)N(c1ccc3ncnn3c1)C2=O (stereo not drawn) [BUCMD00157]	>10
CC(C)Cc1n[nH]c2c1C(c1cccs1)N(c1ccc3ncnn3c1)C2=O (stereo not drawn) [BUCMD00158]	>10
COc1cccc(C2c3c(CC(C)C)n[nH]c3C(=O)N2c2ccc3ncnn3c2)c1 (stereo not drawn) [BUCMD00159]	>10
CC(C)Cc1n[nH]c2c1C(c1ccc(F)cc1Br)N(c1ccc3ncnn3c1)C2=O (stereo not drawn) [BUCMD00160]	>10
CC(C)Cc1n[nH]c2c1C(c1cc(C(F)(F)F)ccc1Br)N(c1ccc3ncnn3c1)C2=O (stereo not drawn) [BUCMD00161]	>10
COc1cc(N2C(=O)c3[nH]nc(CC(C)C)c3C2c2ccc(F)cc2)ccn1 (stereo not drawn) [BUCMD00163]	>10
COc1cc(N2C(=O)c3[nH]nc(CC(C)C)c3C2c2ccc(F)cc2)ccc1Br (stereo not drawn) [BUCMD00164]	>10
COc1cc(OC)cc(N2C(=O)c3[nH]nc(CC(C)C)c3C2c2ccc(F)cc2)c1 (stereo not drawn) [BUCMD00165]	>10
Cc1cccnc1N1C(=O)c2[nH]nc(CC(C)C)c2C1c1ccc(F)cc1 (stereo not drawn) [BUCMD00166]	>10
Cc1cc(Br)cnc1N1C(=O)c2[nH]nc(CC(C)C)c2C1c1ccc(F)cc1 (stereo not drawn) [BUCMD00167]	>10
Cc1cc(Cl)cnc1N1C(=O)c2[nH]nc(CC(C)C)c2C1c1ccc(F)cc1 (stereo not drawn) [BUCMD00168]	>10
Cc1cc(N2C(=O)c3[nH]nc(CC(C)C)c3C2c2ccc(F)cc2)n(C)n1 (stereo not drawn) [BUCMD00169]	>10
CC(C)Cc1n[nH]c2c1C(c1ccc(F)cc1)N(c1cc(C3CC3)[nH]n1)C2=O (stereo not drawn) [BUCMD00170]	>10
CC(C)Cc1n[nH]c2c1C(c1ccc(F)cc1)N(c1cc(C(C)C)nn1C)C2=O (stereo not drawn) [BUCMD00171]	>10
CC(C)Cc1n[nH]c2c1C(c1ccc(F)cc1)N(c1cncc(Br)c1)C2=O (stereo not drawn) [BUCMD00172]	>10
Cc1ccnc(N2C(=O)c3[nH]nc(CC(C)C)c3C2c2ccc(F)cc2)c1 (stereo not drawn) [BUCMD00173]	>10
Cc1ccc(N2C(=O)c3[nH]nc(CC(C)C)c3C2c2ccc(F)cc2)nc1 (stereo not drawn) [BUCMD00174]	>10
Cc1cccc(N2C(=O)c3[nH]nc(CC(C)C)c3C2c2ccc(F)cc2)n1 (stereo not drawn) [BUCMD00175]	>10
COc1ccc(N2C(=O)c3[nH]nc(CC(C)C)c3C2c2ccc(Br)cc2OC)cn1 (stereo not drawn) [BUCMD00176]	>10
COc1ccc(OC)c(N2C(=O)c3[nH]nc(CC(C)C)c3C2c2ccc(OC)nc2)c1 (stereo not drawn) [BUCMD00177]	>10
CCc1ccc(C2c3c(CC(C)C)n[nH]c3C(=O)N2c2ccc(F)c(OC)c2)cn1 (stereo not drawn) [BUCMD00178]	>10
COc1cc(N2C(=O)c3[nH]nc(CC(C)C)c3C2c2c(C)nn(C)c2Cl)ccc1Br (stereo not drawn) [BUCMD00179]	>10
COc1cc(N2C(=O)c3[nH]nc(CC(C)C)c3C2c2c(C)nn(C)c2Cl)ccc1F (stereo not drawn) [BUCMD00180]	>10
COc1cc(N2C(=O)c3[nH]nc(CC(C)C)c3C2c2cncc(Br)c2)ccn1 (stereo not drawn) [BUCMD00181]	>10
COc1ccc(OC)c(N2C(=O)c3[nH]nc(CC(C)C)c3C2c2cncc(Br)c2)c1 (stereo not drawn) [BUCMD00182]	>10
COc1cc(N2C(=O)c3[nH]nc(CC(C)C)c3C2c2cncc(Br)c2)ccc1F (stereo not drawn) [BUCMD00183]	>10

Compound	L. donovani amastigotes EC75 (μM, B10R cells) [µM]
COc1cc(OC)cc(N2C(=O)c3[nH]nc(CC(C)C)c3C2c2cncc(Br)c2)c1 (stereo not drawn) [BUCMD00184]	>10
COc1cccc(N2C(=O)c3[nH]nc(CC(C)C)c3C2c2cncc(Br)c2)c1 (stereo not drawn) [BUCMD00185]	>10
COc1cc(N2C(=O)c3[nH]nc(CC(C)C)c3C2c2ccc(F)cc2C)ccn1 (stereo not drawn) [BUCMD00186]	>10
COc1cc(N2C(=O)c3[nH]nc(CC(C)C)c3C2c2cc(Br)ccc2F)ccn1 (stereo not drawn) [BUCMD00187]	>10
COc1cc(N2C(=O)c3[nH]nc(CC(C)C)c3C2c2ccc(F)cc2F)ccn1 (stereo not drawn) [BUCMD00188]	>10
COc1ncccc1C1c2c(CC(C)C)n[nH]c2C(=O)N1c1ncccc1C (stereo not drawn) [BUCMD00189]	>10
COc1ncccc1C1c2c(CC(C)C)n[nH]c2C(=O)N1c1ncc(Br)cc1C (stereo not drawn) [BUCMD00190]	>10
COc1ncccc1C1c2c(CC(C)C)n[nH]c2C(=O)N1c1ncc(Cl)cc1C (stereo not drawn) [BUCMD00191]	>10
Cc1cc(N2C(=O)c3[nH]nc(CC(C)C)c3C2c2ccc(Br)cc2)n(C)n1 (stereo not drawn) [BUCMD00192]	>10
Cc1cc(N2C(=O)c3[nH]nc(CC(C)C)c3C2c2ccc(Cl)cc2)n(C)n1 (stereo not drawn) [BUCMD00193]	>10
COc1cc(C2c3c(CC(C)C)n[nH]c3C(=O)N2c2cc(C)nn2C)cc(OC)c1Br (stereo not drawn) [BUCMD00194]	>10
COc1cc(C2c3c(CC(C)C)n[nH]c3C(=O)N2c2cc(C3CC3)[nH]n2)cc(OC)c1Br (stereo not drawn) [BUCMD00195]	>10
COc1ccc(OC)c(C2c3c(CC(C)C)n[nH]c3C(=O)N2c2cncc(Br)c2)c1 (stereo not drawn) [BUCMD00196]	>10
COc1ccc(OC)c(C2c3c(CC(C)C)n[nH]c3C(=O)N2c2cc(C)ccn2)c1 (stereo not drawn) [BUCMD00197]	>10
COc1ccc(OC)c(C2c3c(CC(C)C)n[nH]c3C(=O)N2c2ccc(C)cn2)c1 (stereo not drawn) [BUCMD00198]	>10
COc1ccc(OC)c(C2c3c(CC(C)C)n[nH]c3C(=O)N2c2cccc(C)n2)c1 (stereo not drawn) [BUCMD00199]	>10
Cc1ccc(N2C(=O)c3[nH]nc(CC(C)C)c3C2c2ccc(F)cc2Br)cn1 (stereo not drawn) [BUCMD00629]	1.0
Cc1ccc(N2C(=O)c3[nH]nc(CC(C)C)c3C2c2ccc(F)cc2F)cn1 (stereo not drawn) [BUCMD00630]	7.3
Cc1cc(N2C(=O)c3[nH]nc(CC(C)C)c3C2c2ccc(F)cc2Br)ccn1 (stereo not drawn) [BUCMD00643]	1.2
Cc1cc(F)ccc1C1c2c(CC(C)C)n[nH]c2C(=O)N1c1ccn(C)n1 (stereo not drawn) [BUCMD00652]	>10
CC(C)Cc1n[nH]c2c1C(c1ccc(Br)cc1F)N(c1ccn(C)n1)C2=O (stereo not drawn) [BUCMD00653]	>10
CC(C)Cc1n[nH]c2c1C(c1ccc(F)cc1Cl)N(c1ccn(C)n1)C2=O (stereo not drawn) [BUCMD00654]	>10
CC(C)Cc1n[nH]c2c1C(c1ccc(Cl)cc1F)N(c1ccn(C)n1)C2=O (stereo not drawn) [BUCMD00655]	>10
CC(C)Cc1n[nH]c2c1C(c1ccccc1Cl)N(c1ccn(C)n1)C2=O (stereo not drawn) [BUCMD00656]	>10
Cc1ccccc1C1c2c(CC(C)C)n[nH]c2C(=O)N1c1ccn(C)n1 (stereo not drawn) [BUCMD00657]	>10
CC(C)Cc1n[nH]c2c1C(c1ccc(F)cc1Br)N(c1ccn(C)n1)C2=O (stereo not drawn) [BUCMD00658]	>10
CC(C)Cc1n[nH]c2c1C(c1ccc(F)cc1F)N(c1ccn(C)n1)C2=O (stereo not drawn) [BUCMD00659]	>10
